Among the data in US20260285863A1, “COMPOUNDS CAPABLE OF MODULATING GPR65” (Pathios Therapeutics Limited, priority 2023, published 2026) are IC50 values, retold here.

For this assay, the target named is T1, human recombinant GPR65 (Homo sapiens, UniProt Q8IYL9).
T1 construct: host or cells: 1321N1 human astrocytoma cells (1321N1-hrGPR65)
In words: Human GPR65 cAMP HTRF antagonist assay. It is filed as cell-based. As to conditions: 1321N1-hrGPR65 cells, assay pH 7.2, cAMP HTRF; read-out: hGPR65 IC50. The method in brief: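 1321N1 cells stably expressing human GPR65 were preincubated 30 min at room temperature with compound in KRH pH 7.6 containing 1 mM IBMX and 200 μM EDTA. They were then acid-stimulated to pH 7.2 for 30 min, with pH 7.9 as control. cAMP was read by HTRF (665/620 ratio), and IC50 came from normalised 4-parameter logistic fits.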
In general terms: Time-resolved FRET reads energy transfer from a long-lived donor to a nearby acceptor.

T1 sequence (Q8IYL9 whole entry): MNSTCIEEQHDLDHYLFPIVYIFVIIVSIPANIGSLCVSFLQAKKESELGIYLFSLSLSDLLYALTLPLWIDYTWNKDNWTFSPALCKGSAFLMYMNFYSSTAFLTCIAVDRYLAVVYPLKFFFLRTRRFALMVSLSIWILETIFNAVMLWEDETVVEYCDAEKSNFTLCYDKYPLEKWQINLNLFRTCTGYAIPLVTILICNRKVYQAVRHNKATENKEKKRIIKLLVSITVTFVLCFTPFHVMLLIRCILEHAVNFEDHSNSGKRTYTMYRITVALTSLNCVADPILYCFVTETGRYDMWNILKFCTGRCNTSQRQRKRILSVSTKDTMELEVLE

Take `O=C(Nc1cc(Cl)c(-c2ccc(OC[C@@H]3CCOC3)nc2)cc1F)N1[C@H]2CC[C@@H]1c1n[nH]c(=O)cc1C2` [Compound 79, (6S,9R)-N-(5-Chloro-2-fluoro-4-(6-(((R)-tetrahydrofuran-3-yl)methoxy)pyridin-3-yl)phenyl)-3-oxo-3,5,6,7,8,9-hexahydro-2H-6,9-epiminocyclohepta[c]pyridazine-10-carboxamide]: the IC50 (usually the concentration that gives 50% inhibition) is under 500 nM.

Turning to `O=C(Nc1cc(Cl)c(COc2ccc(OC3CCCC3)cn2)cc1F)N1[C@H]2CC[C@@H]1c1c[nH]c(=O)cc1C2` [Compound 58, (6S,9R)-N-(5-chloro-4-(((5-(cyclopentyloxy)pyridin-2-yl)oxy)methyl)-2-fluorophenyl)-3-oxo-3,5,6,7,8,9-hexahydro-2H-6,9-epiminocyclohepta[c]pyridine-10-carboxamide], the IC50 is under 500 nM. `O=C(Nc1cc(Cl)c(-c2ccc(OCC3CCOC3)nc2)cc1F)N1[C@H]2CC[C@@H]1c1c[nH]c(=O)cc1C2` (stereo partly drawn) [Compound 16, (6S,9R)-N-(5-chloro-2-fluoro-4-(6-((tetrahydrofuran-3-yl)methoxy)pyridin-3-yl)phenyl)-3-oxo-3,5,6,7,8,9-hexahydro-2H-6,9-epiminocyclohepta[c]pyridine-10-carboxamide]: the IC50 is under 500 nM.

As to `O=C(Nc1cc(Cl)c(-c2ccc(OCC(F)(F)F)nn2)cc1F)N1[C@H]2CC[C@@H]1c1c[nH]c(=O)cc1C2` [Compound 12, (6S,9R)-N-(5-chloro-2-fluoro-4-(6-(2,2,2-trifluoroethoxy)pyridazin-3-yl)phenyl)-3-oxo-3,5,6,7,8,9-hexahydro-2H-6,9-epiminocyclohepta[c]pyridine-10-carboxamide], the IC50 was under 500 nM. Then `Cn1ncc2cc(-c3cc(F)c(NC(=O)N4[C@H]5CC[C@@H]4c4c[nH]c(=O)cc4C5)cc3Cl)ccc21` [Compound 37, (6S,9R)-N-(5-chloro-2-fluoro-4-(1-methyl-1H-indazol-5-yl)phenyl)-3-oxo-3,5,6,7,8,9-hexahydro-2H-6,9-epiminocyclohepta[c]pyridine-10-carboxamide], with under 500 nM.
